Data from patent publication US7351739B2, “Bioactive compounds and methods of uses thereof” (Wellgen, Inc., priority 2004, dated 2008).

Legend:
JB6 C141 cells = assay: Anchorage-independent (soft agar) neoplastic cell transformation assay, EGF-exposed; type: cell-based, mouse
Protocol: (§1) Cell cultures: The JB6 mouse epidermal cell line Cl 41 or its stable AP-1 luciferase reporter plasmid stable transfectant was maintained with Eagles minimal essential medium (MEM), containing 5% fetal bovine serum (FBS), 2 mM L-glutamine and […] gentamicin or 50 IU/ml penicillin G and 50 μg/ml streptomycin, in an atmosphere of 95% air-5% CO2 at 37° C. Cells were seeded at a density of 5×10^4 cells/ml and cultured for 24 h. The cells were serum-starved in 0.1% FBS in MEM for 36 h to synchronize the cell cycle into G0 phase. The cells were treated with various concentrations of the test compound or distilled water (as a control) for 1 h, followed, by addition of MTS assay buffer for toxicity studies or 12-O-tetradecanoylphorbol-13-acetate (TPA) or epidermal growth factor (EGF at 10-20 ng/ml) to determine AP-1 activation. Some cells were used for cell transformation assays as described below. For human phenotype expression assays, human colon HCT116, human lung cancer HT460, human skin melanoma SK-MEL-28 or human ovarian SK-OV3 cells were cultured in their respective medium and harvested for soft agar assays.
(§2) Anchorage-independent transfornation assay: Inhibition of test compounds on TPA or EGF-induced cell transformation or human tumor phenotype expression was investigated under anchorage independent conditions. Samples of 1×10^4 cells were exposed to TPA (20 ng/ml) or EGF (20 ng/ml) with or without different concentrations of test compound inl ml 0.33% basal medium Eagle (BME) agar containing 10% FBS over 3.5 ml 0.5% BME agar medium containing 10% FBS. Gingerol was dissolved in 100% ethanol. Ethanol was used in the control group for comparison. The cultures were maintained in a 37° C., 5% CO2 incubator for 14-21 days and the cell colonies were scored by a computerized program integrated with a light microscope. Human tumor cells were treated in a similar manner but no EGF or TPA was needed.

[1] = test system: HCT116 colon cancer cells; assay: Soft agar colony formation / human tumor phenotype expression; type: cell-based
Protocol: as §1, §2

HT460 lung cancer cells = assay: as above; type: cell-based; conditions: for Effect against human lung cancer cells, colony formation (figure statement, in words): concentration not given
Protocol: as §1, §2

[2] = test system: SK-MEL-28 skin cancer cells; assay: as above; type: cell-based
Protocol: as §1, §2

[3] = test system: JB6 C141 mouse skin cells; assay: MTS toxicity (cell proliferation) assay; type: cell-based; conditions: 50 μM
Protocol: as §1, with “For human phenotype expression assays, human colon HCT116, human lung cancer HT460, human skin melanoma SK-MEL-28 or human ovarian SK-OV3 cells were cultured in their respective medium and harvested for soft agar assays.” left out
Cell Proliferation Assay (MTS Assay): Cell proliferation was analyzed using the CELLTITER 96® AQueous One Solution Cell Proliferation Assay (Promega, Madison, Wis.) following the instructions provided. […] Then the absorbance of a colored formazan product catalyzed by dehydrogenase enzymes in metabolically active cells was recorded at 492 nm with 690 nm as a background. Data were expressed as the percentage of absorbance of untreated control cells.

[4] = test system: skin cancer induced by UVA exposure in hairless mice; assay: UVA-induced skin tumors in SKh-1 hairless mice, topical treatment; type: in vivo; conditions: day 84, 30 micrograms per mouse on tumors, 5 days a week, day 21 to 53
Protocol: Twenty SKh-1 hairless mice were exposed to UVA to induce skin tumor formation. […] Rubescensin J was dissolved in DMSO and then brought up to volume in acetone. The two groups. of mice were treated with rubescensin J in acetone, and acetone alone, respectively. […] Five days a week, each mouse received a total of 30 micrograms applied directly on tumor(s) in a volume of 250 microliters. The compound was made fresh each day. Tumor numbers and sizes were monitored and recorded periodically.
Initial measurements were taken on day 1, 14 and 20, and the first treatment was applied on day 21. The experimental group of mice were treated with the compound 5 days a week until the compound was depleted on day 53. Measurement #1 through to #11 were made on day 14, 20, 24, 28, 32, 36, 39, 43, 51, 53, and 84. The numbers of tumor papillomas and the tumor volumes are expressed as a percentage of the number of papillomas and tumor volume on day 1.

[5] = test system: SK-OV-3 ovarian cancer cells; assay: Soft agar colony formation / human tumor phenotype expression; type: cell-based
Protocol: as §1, §2

[6] = Homo sapiens, 25 μM, read-out: % Inhibition: HT 460 Lung Cancer

C=C1[C@@H](O)[C@@]23C(CC[C@@H]1[C@H]2O)[C@]12CCCC(C)(C)C1[C@H](O)[C@]3(O)OC2=O (stereo partly drawn) [Rabdoternin A]
Inhibition of neoplastic transformation in JB6 cell (in words) (JB6 C141 cells; 25 μM): completely inhibits | Prevention of neoplastic cell transformation, EGF, soft agar (figure statement, in words) (JB6 C141 cells; 25 μM): prevented neoplastic cell transformation | inhibition at 25 µM (JB6 C141 cells; Mus musculus, 25 μM): 100% | Inhibition of HCT116 colon cancer cell growth (in words) ([1]; 25 μM): completely inhibited | inhibition at 25 µM ([1]; Homo sapiens, HCT-116, 25 μM): 100% | Decreasing colony formation, human colon cancer cells (figure statement, in words) ([1]; concentration not given): particularly effective | Inhibition of HT460 lung cancer cell growth (in words) (HT460 lung cancer cells; 25 μM): moderately inhibited | inhibition at 25 µM (HT460 lung cancer cells; [6]): 10% | Effect against human lung cancer cells, colony formation (figure statement, in words) (HT460 lung cancer cells): moderate inhibitory effect | Inhibition of SK-MEL-28 skin cancer cell growth (in words) ([2]; 15 μM): completely inhibits | inhibition at 25 µM ([2]; Homo sapiens, SK-MEL-28, 25 μM): 100% | Effect against human skin melanoma cells, colony formation (figure statement, in words) ([2]; concentration not given): particularly effective

C=C1[C@@H](OC(C)=O)[C@]23[C@H](O)[C@H]1CC[C@H]2[C@]12CCCC(C)(C)[C@H]1[C@H](OC(C)=O)[C@]3(O)OC2 [Rabdoternin C]
Prevention of neoplastic cell transformation, EGF, soft agar (FIG. 21) (JB6 C141 cells; 10 μM): 50% | Inhibition of neoplastic transformation in JB6 cell (in words) (JB6 C141 cells; 100 μM): completely inhibits | % Inhibition: Neoplastic Transformation in JB6 Cells (JB6 C141 cells; text b465: 50% at 10 μM): 50% | % Inhibition: HCT116 Colon Cancer Cells ([1]; 100 μM): 68% | Inhibition of HCT116 colon cancer cell growth (in words) ([1]; 100 μM): significantly inhibited | Decreasing colony formation, human colon cancer cells (figure statement, in words) ([1]; concentration not given): particularly effective | % Inhibition: HT 460 Lung Cancer (HT460 lung cancer cells; 100 μM): 14% | Inhibition of HT460 lung cancer cell growth (in words) (HT460 lung cancer cells; 100 μM): moderately inhibited | Effect against human lung cancer cells, colony formation (figure statement, in words) (HT460 lung cancer cells): some inhibitory effect | % Inhibition: SK-MEL-28 Skin Cancer ([2]; 100 μM): 5-10% | Inhibition of SK-MEL-28 skin cancer cell growth (in words) ([2]; 100 μM): moderately inhibited | Effect against human skin melanoma cells, colony formation (figure statement, in words) ([2]; concentration not given): some inhibitory effect

C=C1[C@@H](O)[C@@]23C(CC[C@@H]1[C@H]2O)[C@@]12C(=O)O[C@@]3(O)[C@@H](O)C1C(C)(C)CC[C@@H]2O (stereo partly drawn) [Rabdoternin B]
Inhibition of neoplastic transformation in JB6 cell (in words) (JB6 C141 cells; 75 μM): completely inhibits | Prevention of neoplastic cell transformation, EGF, soft agar (figure statement, in words) (JB6 C141 cells; 75 μM): prevented neoplastic cell transformation | inhibition at 75 µM (JB6 C141 cells; Mus musculus, 75 μM): 100% | Inhibition of HCT116 colon cancer cell growth (in words) ([1]; 50 μM): completely inhibited | inhibition at 50 µM ([1]; Homo sapiens, HCT-116, 50 μM): 100% | Decreasing colony formation, human colon cancer cells (figure statement, in words) ([1]; concentration not given): particularly effective | inhibition at 35 µM (HT460 lung cancer cells; Homo sapiens, 35 μM, read-out: % Inhibition: HT 460 Lung Cancer): 0% | inhibition at 35 µM ([2]; Homo sapiens, SK-MEL-28, 35 μM): 0%

CC1OC(OC2C(O)C(CO)OC(OCCc3ccc(OC(=O)/C=C/c4ccc(O)c(O)c4)c(O)c3)C2O)C(O)C(O)C1O (stereo not drawn) [Rubscendepside]
Toxicity evaluation with MTS assay (in words) [3]: no Rubscendepside toxicity | Prevention of neoplastic cell transformation, EGF, soft agar (figure statement, in words) (JB6 C141 cells; 25 μM): prevented neoplastic cell transformation | Inhibition of neoplastic transformation in JB6 cell (in words) (JB6 C141 cells; 50 μM): completely inhibits | % Inhibition: Neoplastic Transformation in JB6 Cells (JB6 C141 cells; 20-50 μM): 80-100 (20-50 μM) % | Inhibition of HCT116 colon cancer cell growth (in words) ([1]; 15 μM): significantly inhibits | inhibition at 15 µM ([1]; Homo sapiens, HCT-116, 15 μM): 60% | Decreasing colony formation, human colon cancer cells (figure statement, in words) ([1]; concentration not given): particularly effective | Inhibition of HT460 lung cancer cell growth (in words) (HT460 lung cancer cells; 25 μM): moderately inhibits | inhibition at 25 µM (HT460 lung cancer cells; [6]): 37% | Effect against human lung cancer cells, colony formation (figure statement, in words) (HT460 lung cancer cells): moderate inhibitory effect | Inhibition of SK-MEL-28 skin cancer cell growth (in words) ([2]; 25 μM): moderately inhibits | inhibition at 25 µM ([2]; Homo sapiens, SK-MEL-28, 25 μM): 36% | Effect against human skin melanoma cells, colony formation (figure statement, in words) ([2]; concentration not given): moderate inhibitory effect

Rubescensin M
Inhibition of neoplastic transformation in JB6 cell (in words) (JB6 C141 cells; 100 μM): almost completely inhibits | Prevention of neoplastic cell transformation, EGF, soft agar (figure statement, in words) (JB6 C141 cells; 100 μM): prevented neoplastic cell transformation | % Inhibition: Neoplastic Transformation in JB6 Cells (JB6 C141 cells; text b462: 100 μM): 90% | % Inhibition: HCT116 Colon Cancer Cells ([1]; 75 μM): 90% | Decreasing colony formation, human colon cancer cells (figure statement, in words) ([1]; concentration not given): particularly effective | % Inhibition: HT 460 Lung Cancer (HT460 lung cancer cells; 75 μM): 73% | Effect against human lung cancer cells, colony formation (figure statement, in words) (HT460 lung cancer cells): moderate inhibitory effect | % Inhibition: SK-MEL-28 Skin Cancer ([2]; 50 μM): 100% | Inhibition of SK-MEL-28 skin cancer cell growth (in words) ([2]; 50 μM): completely inhibited | Effect against human skin melanoma cells, colony formation (figure statement, in words) ([2]; concentration not given): particularly effective

CC1(C)CC[C@H](O)[C@]23CO[C@@](O)([C@@H](O)C12)[C@]12C(=O)[C@@]4(CO4)[C@H](CCC31)[C@H]2O (stereo partly drawn) [Rubescensin J, 1α, 6β, 7β, 14β-tetrohydroxy-7α,20-epoxy-ent-kaur-16,17-exo-epoxide-15-one]
Number of tumor papillomas as percentage of the number on day 1 ([4]; untreated group about 90%): ~50% | Tumor volume as percentage of the volume on day 1 ([4]; untreated group about 120%): about 60% | Prevention of neoplastic cell transformation, EGF, soft agar (figure statement, in words) (JB6 C141 cells; 25 μM): prevented neoplastic cell transformation | Inhibition of neoplastic transformation in JB6 cell (in words) (JB6 C141 cells; 40 μM): completely inhibits | % Inhibition: Neoplastic Transformation in JB6 Cells (JB6 C141 cells; 20-40 μM): 83-100 (20-40 μM) % | Decreasing colony formation, human colon cancer cells (figure statement, in words) ([1]; 10 μM): particularly effective | Inhibition of HCT116 colon cancer cell growth (in words) ([1]; 20 μM): completely inhibits | inhibition at 20 µM ([1]; Homo sapiens, HCT-116, 20 μM): 100% | Inhibition of HT460 lung cancer cell growth (in words) (HT460 lung cancer cells; 20 μM): moderately inhibits | inhibition at 20 µM (HT460 lung cancer cells; Homo sapiens, 20 μM, read-out: % Inhibition: HT 460 Lung Cancer): 20% | Effect against human lung cancer cells, colony formation (figure statement, in words) (HT460 lung cancer cells): moderate inhibitory effect | Effect against human skin melanoma cells, colony formation (figure statement, in words) ([2]; 20 μM): particularly effective | Inhibition of SK-MEL-28 skin cancer cell growth (in words) ([2]; 20 μM): significantly inhibits | inhibition at 20 µM ([2]; Homo sapiens, SK-MEL-28, 20 μM): 50% | Inhibition of SK-OV-3 ovarian cancer cell growth (in words) ([5]; 20 μM): moderately inhibits | inhibition at 20 µM ([5]; Homo sapiens, SK-OV-3, 20 μM): 15% | Effect against human ovarian cancer cells, colony formation (figure statement, in words) ([5]; concentration not given): moderate inhibitory effect
